Results on 1 compound are retold here after patent publication US6025365A, “Chelerythrine and radiation combined tumor therapy” (Arch Development Corp., priority 1997, dated 2000).

In one data set the test system is SQ-20B cells. Description: Viability by propidium iodide exclusion and FACS. The conditions noted are these: 2.5 μM chelerythrine and 8 Gy. As to the method: Cells, 2.5-3.5×10^5, were cultured in 24-well tissue culture plates for all experiments following standard procedures as previously described (Chmura et al., 1996a; 1996b). Cells were treated with varying concentrations of chelerythrine, incubated for 30 minutes at 37° C. and then irradiated. Radiation for all samples was delivered using a ^60 Co-irradiator (Gammacell 220, Atomic Energy of Canada) at a dose rate of 2.0 Gy/sec. After the indicated time points, cells were harvested, washed once in PBS, and resuspended in PBS containing […] propidium iodide. […] Cells undergoing apoptosis also shrink in size. Cells were analyzed via flow cytometry (FACS) following standard procedures as described in (Chmura et al., 1996a; 1996b) on a FACScan (Becton-Dickson) using Lysis II software.

In a further data set the test system is WEHI-231 cells. The data set is described as follows: Sphingomyelin mass by lipid extraction / TLC. Type of data set: cell-based, murine. The conditions noted are these: 10 μM chelerythrine, 60 minutes. As to the method: FIG. 7A. Inhibition of PKC causes an increase in ceramide production through the activation of a neutral sphingomyelinase and decreases in sphingomyelin levels. Ceramide production was quantitated using the DAG kinase assay for WEHI-231 JM cells and total lipid extraction was used to assay sphingomyelin mass. Following addition of 10 μM chelerythrine, cells were lysed at the appropriate time points as described herein. Each data point represents the average percentage change in ceramide or sphingomyelin generation from baseline derived from at least 8 independent studies for all time points with the exception of those marked with * (n=4). Standard deviations depicted by error bars.
FIG. 7B. […] Ceramide production and sphingomyelin mass was quantitated identical to that for chelerythrine. Cells were lysed 2 hours following the addition of 250 nM calphostin C. […]
Cells were prelabeled with [^3 H] palmitate (10 μCi/ml) for 24 hours to isotopic equilibrium in 15 ml glass tubes to minimize changes in cellular ceramide and sphingomyelin due to handling and changing of media (Borchardt et al., 1994). […] Autoradiographs were quantitated using an Epson 1200 c 30 bit scanner and NIH Image software (public domain program developed at the NIH and available from the Internet via FTP from zippy.nimh.nih.gov). […]

Data set [1] can be described thus: Acute lethality / tolerability in mice.
The subject of a further data set is SQ-20B xenografts. Description: Histology of SQ-20B xenografts. The format is in vivo, nude mice (human tumor xenograft). The conditions noted are these: combined x-ray and chelerythrine vs IR. As to the method:
Tumors were injected once or twice (day 0 and day 4) with chelerythrine, chelerythrine and 20 Gy (5 Gy/Day) or 20 Gy alone and excised on day 7, fixed in 10% neutral buffered formalin. Tumors were then trimmed and processed in a Tissue Tek II Tissue Processor. Tissues were embedded in paraffin, sectioned and stained with hematoxylin and eosin or with […] of DAPI (4',6-iamidino-2-phenylindole, Sigma D9542, 1 μg/ml in PBT (PBS+1% Triton X-100)), followed by examination for apoptosis and necrosis by light microscopy.
In contrast, 1/16 of the radiation+buffer and 13/43 of the chelerythrine only treated animals regressed to less than 10% of the initial tumor volume. […] Representative sections of non-necrotic areas of tumors were stained with DAPI to detect nuclear changes of apoptosis. Tumor sections were taken at day 7 following treatment with 2 injections of chelerythrine alone, 20 Gy alone, 1 injection of chelerythrine and 20 Gy, or 2 treatments with chelerythrine and 20 Gy. Nuclei from non-necrotic areas of tumors treated with radiation alone appeared rounded and contained a smooth heterachromatin appearance. Few apoptotic nuclei as defined by chromatin margination and nuclear shrinkage could be detected in these areas.

The next data set relates to SQ20-B cells. The data set is described as follows: Clonogenic survival / colony formation assay. The format is cell-based, human. The method, then: FIG. 2. Chelerythrine chloride enhanced IR-mediated cell killing through divisional death. Clonogenic survival was measured following exposure to increasing concentrations of chelerythrine and ionizing radiation. Cells were plated at cell numbers between about 500 cells/plate and about 2000 cells/plate and treated with 0 μM, 0.5 μM, or 1.0 μM chelerythrine chloride for 30 minutes prior to irradiation. After 2 weeks the colonies were scored for survival if they were composed of more than 50 cells. Results represent the mean of three individual experiments with duplicate or triplicate determinants. Error bars represent +/- the standard error of the means (SEM).
FIG. 5C. […] Closed circles represent radiation alone; closed squares represenet addition of 20 μM C2-Ceramide 30 minutes prior to x-ray.
Exponentially growing SQ20B cultures were trypsinized using 0.05% trypsin+0.02% EDTA. Cells (100 to 50,000) were plated in 100 mm tissue culture dishes. Chelerythrine or C2-ceramide was added 4 hours after plating and irradiated for 30 minutes after the addition of chelerythrine or C2-ceramide. The cells were irradiated using a GE Maxitron 250 x-ray generator operating at 250 kV and 26 mA with a dose rate of 114 cGy/min. After 12 days the cells were fixed and stained with crystal violet following standard procedures (Chmura et al., 1996a; 1996b). Colonies of >50 cells were scored as survivors.
Clonogenic survival was measured following increasing concentrations of chelerythrine chloride alone (0.5-1.5 μM), IR alone (1-9 Gy), or the combined treatment of cells with chelerythrine and IR. […] At a concentration of 500 nM, chelerythrine decreased cell survival to about 80% of untreated control cells (about 20% cell death). The combined treatment of cells with 500 nM of chelerythrine 30 minutes prior to treatment with 3 Gy of radiation decreased cell survival to about 30% of untreated cells (about 70% cell death). […] Cell shrinkage and nuclear condensation, characteristic of apoptosis, were not observed at these concentrations of chelerythrine and IR.

The mark [2] stands for this setting: 500 nM chelerythrine 30 minutes prior to 3 Gy.

`COc1ccc2c(c[n+](C)c3c4cc5c(cc4ccc23)OCO5)c1OC` [chelerythrine, 1,2-dimethoxy-12-methyl[1,3]benzodioxolo[5,6-c]phenanthridinium]: in the data set with SQ-20B cells, the “decrease in cell survival” value amounted to 85%. In the data set on WEHI-231 cells, the sphingomyelin mass entry is reported as “about 55 % of control”. Further, the health of animals result in data set [1] (all treatment groups, throughout the xenograft study) is reported as “appeared healthy throughout the study”. This compound had an LD50 in data set [1] (mouse, in vivo, ip) of 25 mg/kg. Also, the “inflammatory response and necrosis in epidermis and muscle” value in the data set with SQ-20B xenografts was “did not increase this response”. In addition, in the data set with SQ20-B cells (setting [2]), the “cell death, combined treatment” value is listed as “about 70%” and the “cell survival, combined treatment” value was “about 30 % of untreated cells”. Further, in the data set on SQ20-B cells (Homo sapiens, SQ20B, read-out: cell death), the cytotoxicity at 0.5 µM was around 20%. For the same compound, in the data set on SQ20-B cells (Homo sapiens, SQ20B, 500 nM chelerythrine alone), the viability at 0.5 µM is around 80%.
